Experiment [1] deals with Mus musculus. As to the kind of experiment: Percent reduction in plasma blood glucose level was evaluated in mice at a dose of 200 mg/kg/day p.o. for 9 days. In kind it is functional. As to conditions: route oral.
For experiment [2], the system named is Mus musculus. As to the kind of experiment: Percent reduction in plasma triglyceride level was evaluated in mice at a dose of 200 mg/kg/day p.o. for 9 days. As to conditions: route oral. It is filed as functional.
Experiment [3] deals with Mus musculus. The experiment is described as follows: Percent reduction in plasma triglyceride level was evaluated in mice at a dose of 200 mg/kg/day p.o. for 9 days; not applicable. In kind it is functional, organism-based.

Active and inactive are the calls of the source. No cut-off for these calls is given here.

For the compound `CC(=O)O.Cc1c(C)c2c(c(C)c1O)CCC(C)(CN(C)CCOc1ccc(/C=C3\SC(=O)NC3=O)cc1)O2` (stereo not given), the results for the Reduction with Mus musculus [1] and in the experiment with Mus musculus [2] were 11% and 31%, respectively.

On to `Cc1c(C)c2c(c(C)c1O)CCC(C)(CN(C)CCOc1ccc(CC3SC(=O)NC3=O)cc1)O2` (stereo not given), for which the Reduction in the experiment with Mus musculus [1] is listed as 4%. Also, the Reduction entry in the experiment on Mus musculus [3] was “inactive”.

Turning to `Cc1c(C)c2c(c(C)c1O)C(CN(C)CCOc1ccc(/C=C3\SC(=O)NC3=O)cc1)C(C)(C)O2` (stereo not given), the Reduction in the experiment on Mus musculus [1] turned out to be 46%; in the experiment with Mus musculus [2], 71%.

With `Cc1c(C)c2c(c(C)c1O)C(CN(C)CCOc1ccc(/C=C3\SC(=O)NC3=O)cc1)C(C)(C)O2.O=C(O)/C=C\C(=O)O` (stereo not given), the Reduction in the experiment on Mus musculus [1] was determined as 35%; in the experiment with Mus musculus [2], 33%.

Consider `CS(=O)(=O)O.Cc1c(C)c2c(c(C)c1O)CCC(C)(CN(C)CCOc1ccc(/C=C3\SC(=O)NC3=O)cc1)O2` (stereo not given), for which the Reduction in the experiment on Mus musculus [1] is on record as 20%; in the experiment with Mus musculus [2] it was 70%.

For the compound `Cc1c(C)c2c(c(C)c1O)CCC(C)(CN(C)CCOc1ccc(/C=C3\SC(=O)NC3=O)cc1)O2` (stereo not given), the results for the Reduction in the experiment with Mus musculus [1] and with Mus musculus [2] were 43% and 70%, respectively.

Take `Cc1c(C)c2c(c(C)c1O)CCC(C)(CN(C)CCOc1ccc(/C=C3\SC(=O)NC3=O)cc1)O2.O=C(O)/C=C\C(=O)O` (stereo not given): the Reduction with Mus musculus [1] was determined as 20%; in the experiment with Mus musculus [2] it was 60%.

With `Cc1c(C)c2c(c(C)c1O)CCC(C)(CN(C)CCOc1ccc(/C=C3\SC(=O)NC3=O)cc1)O2.Cl` (stereo not given), the Reduction with Mus musculus [1] was found to be 31%; in the experiment on Mus musculus [2], 30%.

Consider `Cc1c(C)c2c(c(C)c1OCc1ccccc1)CCC(C)(CN(C)CCOc1ccc(/C=C3\SC(=O)NC3=O)cc1)O2` (stereo not given), for which the Reduction was found to be 39% in the experiment on Mus musculus [1] and 32% with Mus musculus [2].

On to `Cc1c(C)c2c(c(C)c1O)C(CN(C)CCOc1ccc(CC3SC(=O)NC3=O)cc1)C(C)(C)O2` (stereo not given), for which the Reduction in the experiment on Mus musculus [1] is listed as 17%; with Mus musculus [2], 33%.

In the case of `CCN(CCOc1ccc(/C=C2\SC(=O)NC2=O)cc1)CC1(C)CCc2c(C)c(O)c(C)c(C)c2O1` (stereo not given), the Reduction is given as 2% in the experiment on Mus musculus [1] and 76% with Mus musculus [2].

As for `Cc1c(C)c2c(c(C)c1O)C(COc1ccc(CC3SC(=O)NC3=O)cc1)C(C)(C)O2` (stereo not given), the Reduction came out at 19% with Mus musculus [1] and 40% with Mus musculus [2].

In the experiment with Mus musculus [1], `Cc1c(C)c2c(c(C)c1OCc1ccccc1)C(CN(C)CCOc1ccc(/C=C3\SC(=O)NC3=O)cc1)C(C)(C)O2` (stereo not given) registered a Reduction of 23%. Also, the Reduction entry in the experiment on Mus musculus [3] was “inactive”.

Take `Cc1c(C)c2c(c(C)c1O)CCC(C)(CNCCOc1ccc(/C=C3\SC(=O)NC3=O)cc1)O2` (stereo not given): the Reduction in the experiment on Mus musculus [1] is 6%; in the experiment with Mus musculus [2] it was 29%.

With `Cc1c(C)c2c(c(C)c1O)CCC(C)(COc1ccc(CC3SC(=O)NC3=O)cc1)O2` (stereo not given) [TROGLITAZONE], the Reduction in the experiment on Mus musculus [1] worked out at 24%; in the experiment on Mus musculus [2] it was 50%.

Source of the values: ChEMBL document CHEMBL1130813, “Novel euglycemic and hypolipidemic agents: Part-2. Antioxidant moiety as structural motif” (1998).
